In one series the target is T1, rictor-mTOR complex (Homo sapiens, UniProt P42345).
T1 construct: Immunoprecipitates prepared from lysates of HEK-293T or HeLa cells with the indicated antibodies; endogenous in cells; host or cells: A1: HEK-293T or HeLa; A11: PC3, BJAB, Jurkat, HeLa, H460 (treated with rapamycin before lysis)
Nature of the series: rictor-mTOR immunoprecipitate kinase assay with Akt1/PKB1 as substrate. The format is biochemical. To be noted: immunoprecipitates from HEK-293T or HeLa cells; FIG. 3C. As for the experimental part: For all immunoprecipitation experiments the lysis buffer contained 0.3% CHAPS instead of 1% Triton in order to preserve the integrity of the mTOR complexes (D. D. Sarbassov et al., Curr Biol 14, 1296 (2004); D.-H. Kim et al., Cell 110, 163 (2002)). 4 μg of the indicated antibodies were added to the cleared cellular lysates and incubated with rotation for 90-min. 25 μl of a 50% slurry of protein G-sepharose was then added and the incubation continued for 1 h. Immunoprecipitates captured with protein G-sepharose were washed four times with the CHAPS Lysis Buffer and once with the rictor-mTOR kinase buffer (25 mM Hepes pH 7.5, 100 mM potassium acetate, 1 mM MgCl2). […] After a quick spin, the supernatant was removed from the protein G-sepharose and analyzed by immunoblotting (D.-H. Kim et al., Cell 110, 163 (2002)). […] Supernatants were used in the Akt1/PKB1 kinase assay as described below and were also analyzed by immunoblotting. The pelleted G-sepharose beads were also analyzed by immunoblotting to determine the levels of rictor, mTOR, and raptor in the immunoprecipitates. Akt1/PKB1 kinase activity was determined using Crosstide (Upstate Biotechnology, #12-331) as substrate as recommended by the manufacturers protocol. […] After the washing, the P81 squares were dried and radioactivity read in a scintillation counter.

The subject of series [1] is PC3 cells. Nature of the series: apoptosis by DNA fragmentation (Cell Death Detection Elisa). The following applies: PC3 cells expressing wild-type or S473D Akt1/PKB1, 100 μM.
Description: Cells were selected for one week in 200 μg/ml hygromycin before use. 15,000 PC3 (MSCV controls, WT Akt1/PKB1, or 473D Akt1/PKB1) cells were seeded in the wells of a 96 well-plate and cultured overnight. The next day the cells were rinsed once in serum-free medium and then cultured for 48 hrs in serum-free medium containing either DMSO (the small molecule vehicle), 100 nM rapamycin, 100 μM indole-3-carbinol, or both rapamycin and indole-3-carbinol. When indole-3-carbinol was used, 0.002% BSA was added to the medium. After 48 hours in culture all cells (adherent and floating) were processed with the Cell Death Detection Elisa plus (Roche, cat# 1774425) as described by the manufacturer.
Series [2] has as its system PC3 cells. The following applies: literature (Chinni & Sarkar); cited from earlier work.
The next series concerns the target mTORC2 assembly (Homo sapiens, UniProt P42345+P62942). The series can be described thus: 35S pulse-chase of newly synthesized mTOR bound to rictor. The format is cell-based. The following applies: 100 nM. Here is the method: 4×10^6 Hela or PC3 cells growing in 100 mm dishes were treated with 100 nM rapamycin or vehicle control for 20 minutes, rinsed once in methionine- and cysteine-free DMEM, and then incubated in 3.5 ml of the same medium containing 10% dialyzed serum and 0.1 mCi/ml of ^35S-methionine/^35S-cysteine (Express Protein Labeling Mix, Perkin Elmer). After allowing the cells to label for 30 minutes, the cells were washed once in the normal culture medium and incubated in fresh medium for the periods of time indicated in the figures. […] Quantification was performed using images acquired with a phosphoimager.

The conditions of series [3]: Morrisett et al. 2003; cited from earlier work.
A short description of series [4]: tissue penetration with phospho-S6 as marker. The format is in vivo, mice. To be noted: 10 mg/kg intraperitoneal daily. As for the experimental part: (§1) 1 mg of rapamycin was dissolved in 20 μl of ethanol, which was then diluted with Ringer's saline solution to a final concentration of 1 mg/ml directly before use. Three-month old male C57BL/6NTac (Taconic) mice were administered daily intraperitioneal injections of 10 mg/kg rapamycin or the drug vehicle for 7 days. Mice were then euthanized with CO2, organs were harvested into RIPA buffer, and homogenized with mechanical disruption followed by sonication. […] The experiment was repeated twice with similar results.

The nature of series [5]: food intake during 7-day treatment. The format is in vivo, mice. The following applies: 10 mg/kg daily. As for the experimental part: as §1
In another series the target is rictor (UniProt Q6R327).
Series [6] addresses full length, wild-type Akt1/PKB1 (inactive, Upstate Biotechnology #14-279) (UniProt P31749).

mTORC2 assembly, sequence (P62942 2-108 limits assumed, other chains not shown): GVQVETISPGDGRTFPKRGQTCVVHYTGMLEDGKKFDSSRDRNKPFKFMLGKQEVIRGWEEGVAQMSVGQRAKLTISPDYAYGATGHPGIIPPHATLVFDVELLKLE
full length, wild-type Akt1/PKB1 (inactive, Upstate Biotechnology #14-279), sequence (P31749 whole entry, looked up, tested part not stated): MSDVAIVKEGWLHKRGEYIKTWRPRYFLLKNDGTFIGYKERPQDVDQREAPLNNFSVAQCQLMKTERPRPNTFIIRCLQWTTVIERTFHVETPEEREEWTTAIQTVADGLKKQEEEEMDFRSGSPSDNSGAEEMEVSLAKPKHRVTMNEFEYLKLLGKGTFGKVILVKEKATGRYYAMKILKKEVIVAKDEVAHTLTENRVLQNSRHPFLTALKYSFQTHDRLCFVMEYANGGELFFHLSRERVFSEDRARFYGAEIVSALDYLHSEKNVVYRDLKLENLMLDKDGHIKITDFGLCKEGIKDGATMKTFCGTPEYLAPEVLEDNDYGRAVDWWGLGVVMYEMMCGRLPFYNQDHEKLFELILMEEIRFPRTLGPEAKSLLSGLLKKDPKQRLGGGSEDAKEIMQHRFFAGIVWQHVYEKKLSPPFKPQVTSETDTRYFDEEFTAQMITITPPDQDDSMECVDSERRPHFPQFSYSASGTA

Turning to `CN[C@@H]1C[C@H]2O[C@@](C)([C@@H]1OC)n1c3ccccc3c3c4c(c5c6ccccc6n2c5c31)C(=O)NC4` [Staurosporine, staurosporine], the “in vitro phosphorylation of Akt/PKB by rictor-mTOR” value on rictor-mTOR complex is reported as “did not decrease”.

For `OCc1c[nH]c2ccccc12` [indole-3-carbinol], the induction of apoptosis result with PC3 cells [1] was “decreased the capacity of indole-3-carbinol to induce apoptosis”. The “apoptosis in PC3 cells” value in the series on PC3 cells [2] was “known to induce apoptosis”.

Consider `CO[C@H]1C[C@@H]2CC[C@@H](C)[C@@](O)(O2)C(=O)C(=O)N2CCCC[C@H]2C(=O)O[C@H]([C@H](C)C[C@@H]2CC[C@@H](O)[C@H](OC)C2)CC(=O)[C@H](C)/C=C(\C)[C@@H](O)[C@@H](OC)C(=O)[C@H](C)C[C@H](C)/C=C/C=C/C=C/1C` [rapamycin], for which the “interaction between newly-synthesized mTOR and rictor prevented” value at mTORC2 assembly (HeLa cells) came to 80%; on mTORC2 assembly (PC3 cells) it was 100%. The “side effect in patients” value in series [3] is “hyperlipidemia commonly seen”. Also, in [4], the tissue penetration entry is “penetrates all major tissues except the brain”. For the same compound, in series [5], the “food intake versus vehicle” value is “ate similar amounts”.

Regarding “mTOR (mammalian Target of Rapamycin kinase)”, in the series with rictor, the “in vitro kinase activity of rictor immunoprecipitates towards Akt/PKB” value is “in HeLa and H460 cells treated with rapamycin for 24 hours, a greater amount of mTOR remained bound to rictor and this correlated with a higher level of kinase activity towards Akt/PKB”; the “in vitro phosphorylation of Akt/PKB by immunoprecipitates” value was “the raptor immunoprecipitates also contain mTOR but did not phosphorylate Akt/PKB”.

In the case of rictor-mTOR complex, in series [6], the “phosphorylation of S473 of Akt/PKB in vitro (immunoblot)” value is recorded as “Rictor-mTOR complexes isolated from HEK-293T or HeLa phosphorylated S473 but not T308 of full length, wild-type Akt/PKB in vitro”.

These data come from patent publication US7906308B2, “Phosphorylation and regulation of Akt/PKB by the rictor-mTOR complex” (Whitehead Institute for Biomedical Research, priority 2005, dated 2011).
